The values below come from ChEMBL document CHEMBL4145504, “Jatrophane diterpenoids from Euphorbia sororia as potent modulators against P-glycoprotein-based multidrug resistance” (Eur J Med Chem, 2018).

The species entered for data set [1] is Homo sapiens. The data set can be described thus: Inhibition of P-gp in human MCF7/ADR cells assessed as potentiation of doxorubicin-induced cytotoxicity at 10 uM after 48 hrs by MTT assay relative to control. Type of data set: cell-based. (Tetrazolium assays rely on reduction of a dye to a coloured formazan, in cell work by metabolically active cells.)
Data set [2] is described as follows: Cytotoxicity against human MCF7/ADR cells assessed as cell survival at 10 uM after 48 hrs by MTT assay relative to control. Type of data set: cell-based. The conditions noted are these: MCF7/ADR cells (NCI/ADR-RES), read-out: Survival.
In another data set the test system is MCF7. The data set can be described thus: Cytotoxicity against human MCF7 cells after 48 hrs by MTT assay. Type of data set: cell-based. Conditions: MCF7, 48 h.
The test system of the next data set is NCI/ADR-RES. The data set is described as follows: Cytotoxicity against human MCF7/ADR cells after 48 hrs by MTT assay. Type of data set: cell-based.
A short description of data set [3]: Cytotoxicity against human MCF7 cells assessed as cell survival at 10 uM after 48 hrs by MTT assay relative to control. Type of data set: cell-based. Conditions: read-out: Survival.
A short description of data set [4]: Competitive inhibition of P-gp in human MCF7/ADR cells after 150 mins in presence of doxorubicin by Dixon plot analysis. Type of data set: cell-based.
The species entered for data set [5] is Homo sapiens. The data set is described as follows: Inhibition of P-gp in human MCF7/ADR cells assessed as concentration required to restore doxorubicin accumulation in cells after 150 mins by fluorescence assay relative to MCF7 cells. Type of data set: cell-based.
Data set [6] in a line: Competitive inhibition of P-gp in human MCF7/ADR cells after 150 mins in presence of doxorubicin by Lineweaver-Burk plot analysis. Type of data set: cell-based.
The species named for data set [7] is Homo sapiens. The data set can be described thus: Inhibition of P-gp in human MCF7/ADR cells assessed as increase in doxorubicin accumulation in cells after 150 mins by fluorescence assay. Type of data set: cell-based.
For another data set, the system named is HEK293. The data set is described as follows: Cytotoxicity against HEK293 cells after 48 hrs by MTT assay. Type of data set: cell-based. Conditions: Homo sapiens, HEK293, 48 h.
The test system of the next data set is P-gp. The data set can be described thus: Therapeutic index, ratio of IC50 for HEK293 cells to EC50 for inhibition of P-gp in human MCF7/ADR cells assessed as potentiation of doxorubicin-induced cytotoxicity. Type of data set: toxicity, cell-based. The conditions noted are these: HEK293 cells (IC50) and MCF7/ADR cells (EC50).
The nature of data set [8]: Inhibition of P-gp in human MCF7/ADR cells assessed as potentiation of doxorubicin-induced cytotoxicity after 48 hrs by MTT assay. Type of data set: cell-based. The conditions noted are these: NCI/ADR-RES.

For the compound `C=C1CCC(=O)C(C)(C)/C=C/[C@H](C)C(=O)[C@@]2(OC(C)=O)C[C@H](C)[C@H](O)[C@@H]2[C@H]1OC(=O)c1ccccc1`, the fold change (FC) in the data set filed under Homo sapiens [1] was 3.52. The viability at 48 h, 10 µM in [2] turned out to be 90.4%; in data set [3], 95.6%. The IC50 in the data set on MCF7 is 70.9 µM; with NCI/ADR-RES it was 90.9 µM.
Turning to `COc1ccc(CCN(C)CCCC(C#N)(c2ccc(OC)c(OC)c2)C(C)C)cc1OC` (stereo not drawn), the inhibition constant (Ki) in data set [4] stood at 2920 nM; in [6], 2880 nM. Besides, the Activity in the data set filed under Homo sapiens [5] was 40 µM. For the same compound, the viability at 48 h, 10 µM in data set [2] came to 90.2%; in data set [3], 83.4%. The compound also yielded a half-maximal inhibitory concentration (IC50) in the data set with MCF7 of 48.9 µM. For the same compound, the inhibition entry in the data set filed under Homo sapiens [7] is “Dose-dependent effect”.
For the compound `CC(=O)O[C@H]1[C@@H](OC(C)=O)C(C)(C)[C@@H]2O[C@H]2[C@H](C)[C@H](OC(C)=O)[C@]2(O)[C@H]3[C@@H](OC(=O)c4ccccc4)[C@@](O)(CCC(=O)O[C@H]3[C@](C)(OC(C)=O)[C@H]2OC(C)=O)[C@@H]1OC(C)=O`, the fold change (FC) in the data set filed under Homo sapiens [1] stood at 0.69. The viability at 48 h, 10 µM was determined as 93% in data set [2] and 94.9% in data set [3]. The 50% inhibitory concentration (IC50) in the data set with MCF7 and in the data set on NCI/ADR-RES was > 100 µM throughout.
In the case of `C=C1[C@H](OC(=O)C(C)C)[C@@H](OC(C)=O)[C@@H](OC(C)=O)C(C)(C)/C=C/[C@H](C)[C@H](OC(=O)c2ccccc2)[C@@]2(O)C[C@@](C)(OC(C)=O)[C@H](OC(C)=O)[C@@H]2[C@H]1OC(=O)C(C)C`, in the data set filed under Homo sapiens [1], the fold change (FC) was found to be 10. The viability at 48 h, 10 µM was determined as 94.5% in data set [2] and 94.3% in data set [3]. Besides, the concentration for half-maximal inhibition (IC50) in the data set with MCF7 and with NCI/ADR-RES was > 100 µM in each case.
With `CC(=O)O[C@H]1[C@@H](OC(C)=O)C(C)(C)/C=C/[C@H](C)[C@H](OC(C)=O)[C@@]2(O)C[C@@](C)(OC(C)=O)[C@H](O)[C@@H]2[C@H]2OC(=O)CC[C@@]2(OC(=O)c2ccccc2)[C@@H]1OC(=O)C(C)C`, in the data set listed under Homo sapiens [1], the fold change (FC) was found to be 13. Further, the IC50 with HEK293 was 43.1 µM; in the data set with MCF7 it was 64.8 µM; with NCI/ADR-RES, > 100 µM. In addition, the selectivity ratio in the data set on P-gp is 346. For the same compound, the viability at 48 h, 10 µM in data set [2] is > 100%; in [3], 98.5%. Moreover, the EC50 in data set [8] stood at 125 nM.
Consider `C=C1[C@@H](OC(C)=O)[C@@H]2[C@H](OC(=O)c3ccccc3)[C@](C)(OC(=O)C(C)C)C[C@]2(OC(C)=O)C(=O)[C@H](C)/C=C/C(C)(C)[C@H](OC(C)=O)[C@H](OC(C)=O)[C@H]1OC(=O)C(C)C`, for which, in the data set filed under Homo sapiens [1], the fold change (FC) is 11.2. The results for the IC50 in the data set on HEK293, in the data set with MCF7 and in the data set with NCI/ADR-RES were 38.5 µM, > 100 µM and > 100 µM, respectively. The selectivity ratio in the data set with P-gp turned out to be 196. The viability at 48 h, 10 µM turned out to be 91.2% in [2] and 92.3% in data set [3]. Further, the half-maximal effective concentration (EC50) in data set [8] is 196 nM.
For the compound `CC(=O)O[C@H]1[C@@H](OC(C)=O)C(C)(C)/C=C/[C@H](C)[C@@H](OC(C)=O)[C@@]2(O)C[C@@](C)(OC(C)=O)[C@@H]3OC(=O)CC[C@@](O)([C@@H]1OC(=O)C(C)C)[C@H](OC(=O)c1ccccc1)[C@@H]32`, in the data set listed under Homo sapiens [1], the fold change (FC) was 17.1. Also, the half-inhibitory concentration (IC50) in the data set with HEK293 was determined as 53.4 µM; with MCF7, 83.2 µM; in the data set with NCI/ADR-RES it was 93 µM. For the same compound, the selectivity ratio in the data set on P-gp was determined as 368. For the same compound, the viability at 48 h, 10 µM is > 100% in data set [2] and 93.2% in data set [3]. Besides, the EC50 in data set [8] worked out at 145 nM.
As for `C=C1[C@H](OC(=O)C(C)C)[C@@H](OC(C)=O)[C@@H](OC(C)=O)C(C)(C)/C=C/[C@H](C)[C@H](OC(=O)c2ccccc2)[C@@]2(O)C[C@@](C)(OC(C)=O)[C@H](OC(C)=O)[C@@H]2[C@H]1OC(=O)CC`, the fold change (FC) in the data set listed under Homo sapiens [1] came to 12.5. The IC50 in the data set with HEK293 is 67.2 µM; in the data set with MCF7 it was > 100 µM; with NCI/ADR-RES, > 100 µM. Also, the selectivity ratio with P-gp was 378. Besides, the values for the viability at 48 h, 10 µM in data set [2] and in data set [3] were 92.8% and 93.3%, respectively. For the same compound, the 50% effective concentration (EC50) in data set [8] is 178 nM.
For `C=C1[C@H](OC(C)=O)[C@H]2[C@@H](OC(C)=O)[C@@H](C)C[C@]2(OC(C)=O)C(=O)[C@@H](C)/C=C/C(C)(C)C(=O)[C@H](OC(C)=O)[C@H]1OC(=O)C(C)C`, the fold change (FC) in the data set filed under Homo sapiens [1] is 9.99. Further, the viability at 48 h, 10 µM in [2] is 96.2%; in [3], 91.9%. The 50% inhibitory concentration (IC50) in the data set with MCF7 and with NCI/ADR-RES was > 100 µM each time.
In the case of `C=C1[C@H](OC(=O)C(C)C)[C@@H](OC(C)=O)[C@@H](OC(C)=O)C(C)(C)/C=C/[C@H](C)[C@H](O)[C@@]2(O)C[C@@](C)(OC(=O)C(C)C)[C@H](OC(C)=O)[C@@H]2[C@H]1OC(=O)c1ccccc1`, the fold change (FC) in the data set filed under Homo sapiens [1] came to 20.6. Besides, the IC50 in the data set on HEK293 is 63.8 µM; in the data set with MCF7 it was > 100 µM; in the data set on NCI/ADR-RES, > 100 µM. For the same compound, the selectivity ratio with P-gp was determined as 512. The viability at 48 h, 10 µM in [2] is 91.1%; in data set [3], 88%. For the same compound, the EC50 in [8] is 124 nM.
On to `C=C1[C@H](OC(=O)C(C)C)[C@@H](OC(C)=O)[C@@H](OC(C)=O)C(C)(C)/C=C/[C@H](C)[C@H](OC(C)=O)[C@@]2(O)C[C@@](C)(OC(C)=O)[C@H](OC(C)=O)[C@@H]2[C@H]1OC(=O)c1ccccc1`, for which, in the data set listed under Homo sapiens [1], the fold change (FC) came out at 10.2. Moreover, the viability at 48 h, 10 µM in data set [2] was > 100%; in [3], 94.6%. Besides, the concentration for half-maximal inhibition (IC50) in the data set on MCF7 and in the data set on NCI/ADR-RES was > 100 µM each time.
Consider `C=C1[C@H](OC(C)=O)[C@H]2[C@@H](OC(C)=O)[C@@H](C)C[C@]2(OC(C)=O)C(=O)[C@@H](C)/C=C/C(C)(C)C(=O)[C@H](OC(C)=O)[C@H]1OC(=O)CC`, for which the fold change (FC) in the data set filed under Homo sapiens [1] was 6.65. The viability at 48 h, 10 µM was 94.8% in data set [2] and 85.6% in [3]. Further, the IC50 in the data set with MCF7 and in the data set on NCI/ADR-RES was > 100 µM throughout.
Turning to `C=C1[C@H](OC(=O)C(C)C)[C@@H](OC(C)=O)[C@@H](OC(C)=O)C(C)(C)/C=C/[C@H](C)C(=O)[C@@]2(O)C[C@@](C)(OC(C)=O)[C@H](OC(C)=O)[C@@H]2[C@H]1OC(=O)c1ccccc1`, in the data set filed under Homo sapiens [1], the fold change (FC) amounted to 9.29. Moreover, the viability at 48 h, 10 µM in [2] turned out to be 90.3%; in data set [3], 92.4%. Moreover, the half-inhibitory concentration (IC50) with MCF7 and with NCI/ADR-RES was > 100 µM in each case.
For `C=C1[C@H](OC(=O)CC)[C@@H](OC(C)=O)[C@@H](OC(C)=O)C(C)(C)/C=C/[C@H](C)[C@H](OC(=O)c2ccccc2)[C@@]2(O)C[C@@](C)(OC(C)=O)[C@H](OC(C)=O)[C@@H]2[C@H]1OC(=O)C(C)C`, the fold change (FC) in the data set filed under Homo sapiens [1] was determined as 13.5. In addition, the IC50 with HEK293 is 59.4 µM; in the data set with MCF7, > 100 µM; in the data set on NCI/ADR-RES, > 100 µM. Besides, the selectivity ratio in the data set with P-gp turned out to be 438. The viability at 48 h, 10 µM in data set [2] came out at 92.5%; in data set [3], 83.3%. Also, the EC50 in [8] was determined as 136 nM.
Consider `C=C1[C@H](OC(=O)C(C)C)[C@@H](OC(C)=O)[C@@H](OC(C)=O)C(C)(C)/C=C/[C@H](C)[C@H](OC(=O)c2ccccc2)[C@@]2(O)C[C@@](C)(OC(C)=O)[C@H](OC(C)=O)[C@@H]2[C@H]1OC(=O)c1ccccc1`, for which the fold change (FC) in the data set listed under Homo sapiens [1] was determined as 20.9. In addition, the IC50 with HEK293 is 61.4 µM; in the data set with MCF7, 53.9 µM; in the data set with NCI/ADR-RES it was > 100 µM. Also, the selectivity ratio with P-gp came to 661. For the same compound, the viability at 48 h, 10 µM in data set [2] worked out at 97.7%; in data set [3], 93.2%. Further, the EC50 in [8] was determined as 92.9 nM.

The IC50 is the point on the concentration scale where inhibition reaches its midpoint. High values mean weaker potency, low ones greater potency. Broadly, the Ki is a measure of affinity in units of concentration, obtained from inhibition or displacement. In general, EC50 refers to the midpoint of the concentration-response curve.
